By melting point is commonly meant the temperature, or range, at which the solid turns liquid.

Consider `Cl.Clc1cccc(Cl)c1C1CCN(Cc2c(-c3ccccc3)[nH]c3ccccc23)CC1`, for which the melting point fell in the range of 169 to 171 °C. As for `Cl.Clc1cccc(Cl)c1C1CCN(Cc2cc3ccccc3[nH]2)CC1`, the figure is 238 to 240 °C; as for `Cc1c(CN2CCC(c3c(Cl)cccc3Cl)CC2)[nH]c2ccccc12`, 139 to 141 °C; as for `Cc1cccc(C)c1C1CCN(Cc2cc3ccccc3[nH]2)CC1`, 128 to 130 °C.

In turn, `Clc1cccc(Cl)c1C1CCN(Cc2[nH]c3ccccc3c2-c2ccccc2)CC1` displayed a melting point of 162 to 164 °C.

Compound `Cl.OCCn1c(CN2CCC(c3c(Cl)cccc3Cl)CC2)cc2ccccc21` yielded a melting point of 263 to 265 °C. In the case of `Cl.Clc1cccc(Cl)c1C1CCN(Cc2c[nH]c3ccccc23)CC1`, the melting point was in the range of 189 to 190 °C.

Consider `Cc1[nH]c2ccccc2c1CN1CCC(c2c(Cl)cccc2Cl)CC1`, for which the melting point was 168 to 170 °C.

Compound `Cl.Clc1cccc(Cl)c1C1CCN(Cc2c(-c3ccccc3)n(Cc3ccccc3)c3ccccc23)CC1` had a melting point of 209 to 210 °C. As for `CCCn1c(-c2ccccc2)c(CN2CCC(c3c(Cl)cccc3Cl)CC2)c2ccccc21.Cl`, the figure is 150 to 152 °C; as for `Cl.Cn1c(-c2ccccc2)c(CN2CCC(c3c(Cl)cccc3Cl)CC2)c2ccccc21`, 179 to 184 °C (dec.); as for `Cl.OCCn1c(-c2ccccc2)c(CN2CCC(c3c(Cl)cccc3Cl)CC2)c2ccccc21`, 205 to 206 °C.
